Reference: patent US20240158438A1, “POLYPEPTIDE COMPOUND AND APPLICATION THEREOF” (CHENGDU SINTANOVO BIOTECHNOLOGY CO., LTD., priority 2021, published 2024)
Starred links: 1 amine or outer side, 2 acyl side, 3 side chain; linkers in the order of their positions; H or OH if unused. Non-standard residues stand in square brackets, D forms with d. Residues, ends and D or L forms follow the SMILES beside them. *: point of attachment. Pyrrolidine3carbonyl(3S) = O=C([C@H]1CCNC1)*; X6 = O=C(C1[C@H]2CC[C@H](C2)N1[*:1])[*:2]; X5 = NC12CC3CC(C1)CC(CC(=O)*)(C3)C2; dBta = N[C@H](Cc1csc2ccccc12)C(=O)O; dCit = NC(=O)NCCC[C@@H](N)C(=O)O; dTle = CC(C)(C)[C@@H](N)C(=O)O; Ac4c(3-oxa) = NC1(C(=O)O)COC1; dNle = CCCC[C@@H](N)C(=O)O; dAbu = CC[C@@H](N)C(=O)O; Api = NC1(C(=O)O)CCNCC1; X4 = O=C([C@H]1CNCCO1)*; dAze = O=C(O)[C@H]1CCN1; X3 = NCC1(C(=O)*)CCC1

What follows are molecules tested against GHSR-1a (Homo sapiens (Human), UniProt Q92847) (assay: Agonistic activity for GHSR-1a, FLIPR calcium assay). Settings: agonist activity assay, Flp In-CHO-GHSR Stable Pool cells, FLIPR calcium 6 kit; read-out: The activity (IC50) of polypeptide compounds for GHSR-1a.
GHSR-1a, sequence (Q92847 whole entry): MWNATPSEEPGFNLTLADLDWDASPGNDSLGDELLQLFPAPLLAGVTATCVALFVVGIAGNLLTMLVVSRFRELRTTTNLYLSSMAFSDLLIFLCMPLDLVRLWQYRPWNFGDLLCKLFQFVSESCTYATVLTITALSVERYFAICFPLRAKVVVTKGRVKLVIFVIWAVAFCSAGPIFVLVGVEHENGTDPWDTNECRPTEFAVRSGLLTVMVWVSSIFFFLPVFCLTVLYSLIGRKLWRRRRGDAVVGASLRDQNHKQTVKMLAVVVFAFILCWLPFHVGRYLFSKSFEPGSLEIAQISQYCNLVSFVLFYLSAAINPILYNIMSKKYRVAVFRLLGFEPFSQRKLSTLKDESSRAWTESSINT
Format: cell-based
Source text: The use of recombinant expression of GHSR provides several advantages; for example, the receptor can be expressed in a determined cell system, so that it is easier to distinguish between the reactions of the compounds with GHSR and the reactions with other receptors. For example, cell lines such as HEK293, COS7 and CHO that […] can be used to express GHSR, and the same cell lines without expression vectors are used as controls.
The activity of GHSR-1a can be measured using different techniques, for example, by detecting the change in the intracellular conformation of GHSR, the change in G-protein coupling activity, and/or the change in intracellular messengers. Techniques such as measuring intracellular Ca^2+ are preferably used to measure the activity of GHSR-1a. Examples of techniques known in the art that can be used to measure Ca^2+ include the use of FLIPR® calcium ion assay kits, among others. The FLIPR® calcium ion assay kits use a calcium ion sensitive indicator and a masking dye to ensure that a researcher carries out high-sensitivity fluorescent screening for G protein-coupled receptors, ion channels and other calcium ion sensitive targets. This experiment used FLIPR calcium 6 assay kits and FLIPR calcium 6-QF assay kits.
• a) Cell line: Flp In-CHO-GHSR Stable Pool; • b) Complete medium: F12K+10% fetal bovine serum+1×penicillin-streptomycin (PS)+600 μg/mL hygromycin B; • c) Cell seeding medium: F12K+10% fetal bovine serum. • d) Assay buffer: 1× HBSS+20 mM HEPES. • e) […] component A: Assay buffer and component A were left at room temperature (RT), 10 mL of buffer was added to component A, and the mixture was vortexed for 1-2 min and stored at −20° C.
• a) Compound stock solutions: the powders from in-house synthesis were made into 10 mM stock solutions in DMSO according to the standard protocol. • b) Compound storage: all compounds in DMSO were stored in room temperature desiccators for short-term storage (at most 4 months). The remaining compounds were left at −20 ° C. for long-term storage.
• a) Flp In-CHO-GHSR Stable Pool cells were cultured in complete medium. • b) The cells were placed in […] cell seeding medium in a 384-well cell culture plate (Corning, 3764) at 7k cells/well and cultured overnight at 37° C. with 5% CO2. • c) 20× component A was thawed at room temperature, diluted with assay buffer to 2×, and left at RT. • d) The Petri dish was taken out of the incubator and equilibrated at room temperature for 10 min. The medium was changed to […]. After the final wash, 20 μL of buffer was kept in each well, 20 μL of 2× component A was then added to each well, and the plate was incubated at 37° C. for 3-5 s. • e) 10 μL of 5× compound was added to the 384-well cell culture plate, and data collection was immediately performed using FLIPR Tetra.
• 1) Z′ factor=1−3×(SDMax+SDMin)/(MeanMax−MeanMin); • 2) CVMax=(SDMax/MeanMax)×100%; • 3) CVMin=(SDMin/MeanMin)×100%; • 4) S/B=Singal/Background; • 5) Calculation formula for IC50: • Y=Bottom+(Top−Bottom)/(1+10^((LogIC50−X)×HillSlope)) • X: log value of compound concentration; Y: Activation % or Inhibition %

| SMILES | IC50 |
| --- | --- |
| CC(C)(C)[C@@H](N)C(=O)N[C@H](Cc1csc2ccccc12)C(=O)N[C@H](Cc1c[nH]c2ccccc12)C(=O)N[C@@H](Cc1ccccc1)C(=O)NC1(C(N)=O)CCNCC1 [Compound 17] (H-[dTle][dBta][dW]F[Api]-NH2) | 31.1 nM |
| NC(=O)NCCC[C@@H](N)C(=O)N[C@H](Cc1csc2ccccc12)C(=O)N[C@H](Cc1c[nH]c2ccccc12)C(=O)N[C@@H](Cc1ccccc1)C(=O)NC1(C(N)=O)CCNCC1 [Compound 1] (H-[dCit][dBta][dW]F[Api]-NH2) | 150 nM |
| NCCCC[C@@H](NC(=O)[C@H](Cc1ccccc1)NC(=O)[C@@H](Cc1c[nH]c2ccccc12)NC(=O)[C@@H](Cc1csc2ccccc12)NC(=O)CN)C(N)=O [Compound 41] (H-G[dBta][dW]F[dK]-NH2) | 31.4 nM |
| CC(=O)NCCCC[C@@H](N)C(=O)N[C@H](Cc1csc2ccccc12)C(=O)N[C@H](Cc1c[nH]c2ccccc12)C(=O)N[C@@H](Cc1ccccc1)C(=O)NC1(C(N)=O)CCNCC1 [Compound 10] (H-[dK](Ac)[dBta][dW]F[Api]-NH2) | 223 nM |
| N=C(N)NCCC[C@@H](N)C(=O)N[C@H](Cc1csc2ccccc12)C(=O)N[C@H](Cc1c[nH]c2ccccc12)C(=O)N[C@@H](Cc1ccccc1)C(=O)NC1(C(N)=O)CCNCC1 [Compound 9] (H-[dR][dBta][dW]F[Api]-NH2) | 101 nM |
| CC(=O)N[C@@H](CCCCN)C(=O)N[C@H](Cc1csc2ccccc12)C(=O)N[C@H](Cc1c[nH]c2ccccc12)C(=O)N[C@@H](Cc1ccccc1)C(=O)NC1(C(N)=O)CCNCC1 [Compound 8] (Ac-K[dBta][dW]F[Api]-NH2) | > 1000 nM |
| NCCCC[C@@H](N)C(=O)N[C@H](Cc1csc2ccccc12)C(=O)N[C@H](Cc1c[nH]c2ccccc12)C(=O)N[C@@H](Cc1ccccc1)C(=O)N[C@H](CCCCN)C(N)=O [Compound 34] (H-[dK][dBta][dW]F[dK]-NH2) | 78.4 nM |
| CC(=O)N[C@H](CCCNC(N)=O)C(=O)N[C@H](Cc1csc2ccccc12)C(=O)N[C@H](Cc1c[nH]c2ccccc12)C(=O)N[C@@H](Cc1ccccc1)C(=O)N[C@H](CCCCN)C(N)=O [Compound 36] (Ac-[dCit][dBta][dW]F[dK]-NH2) | 122 nM |
| NCCCC[C@@H](N)C(=O)N[C@H](Cc1csc2ccccc12)C(=O)N[C@H](Cc1c[nH]c2ccccc12)C(=O)N[C@@H](Cc1ccccc1)C(=O)NC1(C(N)=O)CCNCC1 [Compound 4] (H-[dK][dBta][dW]F[Api]-NH2) | 1120 nM |
| N=C(N)NCCC[C@@H](N)C(=O)N[C@H](Cc1csc2ccccc12)C(=O)N[C@H](Cc1c[nH]c2ccccc12)C(=O)N[C@@H](Cc1ccccc1)C(=O)N[C@H](CCCCN)C(N)=O [Compound 39] (H-[dR][dBta][dW]F[dK]-NH2) | 272 nM |

Further lines, results first:

| IC50 | SMILES |
| --- | --- |
| 23.3 nM | N=C(N)NCCC[C@@H](NC(=O)[C@H](Cc1ccccc1)NC(=O)[C@@H](Cc1c[nH]c2ccccc12)NC(=O)[C@@H](Cc1csc2ccccc12)NC(=O)[C@H]1CNCCO1)C(N)=O [Compound 67] (X4-[dBta][dW]F[dR]-NH2) |
| 13.5 nM | CC(C)C[C@@H](N)C(=O)N[C@H](Cc1csc2ccccc12)C(=O)N[C@H](Cc1c[nH]c2ccccc12)C(=O)N[C@@H](Cc1ccccc1)C(=O)N[C@H](CCCCN)C(N)=O [Compound 44] (H-[dL][dBta][dW]F[dK]-NH2) |
| 6.7 nM | CCCC[C@@H](NC(=O)C1(NC(=O)[C@H](Cc2ccccc2)NC(=O)[C@@H](Cc2c[nH]c3ccccc23)NC(=O)[C@@H](Cc2csc3ccccc23)NC(=O)[C@H](N)CC)CCNCC1)C(=O)N[C@H](C)C(N)=O [Compound 84] (H-[dAbu][dBta][dW]F[Api][dNle][dA]-NH2) |
| 330 nM | N=C(N)NCCC[C@@H](NC(=O)[C@H](Cc1ccccc1)NC(=O)[C@@H](Cc1c[nH]c2ccccc12)NC(=O)[C@@H](Cc1csc2ccccc12)NC(=O)CC12CC3CC(CC(N)(C3)C1)C2)C(N)=O [Compound 68] (X5-[dBta][dW]F[dR]-NH2) |
| 17.3 nM | NC(=O)[C@H](Cc1ccccc1)NC(=O)[C@@H](Cc1c[nH]c2ccccc12)NC(=O)[C@@H](Cc1csc2ccccc12)NC(=O)C1(N)COC1 [Compound 74] (H-[Ac4c(3-oxa)][dBta][dW]F-NH2) |
| 40.2 nM | N=C(N)NCCC[C@@H](NC(=O)[C@H](Cc1ccccc1)NC(=O)[C@@H](Cc1c[nH]c2ccccc12)NC(=O)[C@@H](Cc1csc2ccccc12)NC(=O)C1N[C@@H]2CC[C@H]1C2)C(N)=O (stereo partly drawn) [Compound 69] (H-[X6][dBta][dW]F[dR]-NH2) |
| 104 nM | NCCCC[C@@H](NC(=O)[C@H](Cc1ccccc1)NC(=O)[C@@H](Cc1c[nH]c2ccccc12)NC(=O)[C@@H](Cc1csc2ccccc12)NC(=O)CC12CC3CC(CC(N)(C3)C1)C2)C(N)=O [Compound 58] (X5-[dBta][dW]F[dK]-NH2) |
| 30.3 nM | N=C(N)NCCC[C@@H](NC(=O)[C@H](Cc1ccccc1)NC(=O)[C@@H](Cc1c[nH]c2ccccc12)NC(=O)[C@@H](Cc1csc2ccccc12)NC(=O)C1(CN)CCC1)C(N)=O [Compound 62] (X3-[dBta][dW]F[dR]-NH2) |
| 13.4 nM | NCCCC[C@@H](NC(=O)[C@H](Cc1ccccc1)NC(=O)[C@@H](Cc1c[nH]c2ccccc12)NC(=O)[C@@H](Cc1csc2ccccc12)NC(=O)[C@H]1CNCCO1)C(N)=O [Compound 57] (X4-[dBta][dW]F[dK]-NH2) |
| 12.2 nM | CCCC[C@@H](NC(=O)C1(NC(=O)[C@H](Cc2ccccc2)NC(=O)[C@@H](Cc2c[nH]c3ccccc23)NC(=O)[C@@H](Cc2csc3ccccc23)NC(=O)[C@H](N)CC)CCNCC1)C(N)=O [Compound 83] (H-[dAbu][dBta][dW]F[Api][dNle]-NH2) |
| 12 nM | N=C(N)NCCC[C@@H](NC(=O)[C@H](Cc1ccccc1)NC(=O)[C@@H](Cc1c[nH]c2ccccc12)NC(=O)[C@@H](Cc1csc2ccccc12)NC(=O)[C@H]1CCNC1)C(N)=O [Compound 66] ({Pyrrolidine3carbonyl(3S)}-[dBta][dW]F[dR]-NH2) |
| 12.4 nM | NC(=O)[C@H](Cc1ccccc1)NC(=O)[C@@H](Cc1c[nH]c2ccccc12)NC(=O)[C@@H](Cc1csc2ccccc12)NC(=O)[C@H]1CCN1 [Compound 75] (H-[dAze][dBta][dW]F-NH2) |
| 34.3 nM | N=C(N)NCCC[C@@H](NC(=O)[C@H](Cc1ccccc1)NC(=O)[C@@H](Cc1c[nH]c2ccccc12)NC(=O)[C@@H](Cc1csc2ccccc12)NC(=O)[C@H]1CCN1)C(N)=O [Compound 65] (H-[dAze][dBta][dW]F[dR]-NH2) |
| 40.1 nM | C[C@@H](N)C(=O)N[C@H](Cc1csc2ccccc12)C(=O)N[C@H](Cc1c[nH]c2ccccc12)C(=O)N[C@@H](Cc1ccccc1)C(=O)N[C@H](CCCCN)C(N)=O [Compound 42] (H-[dA][dBta][dW]F[dK]-NH2) |
